B1: Wnt3a: Wnt3a purchased from R&D systems Inc., added to the medium (protein, UniProt P56704 19-352, looked up)
Protein Wnt-3a: SYPIWWSLAVGPQYSSLGSQPILCASIPGLVPKQLRFCRNYVEIMPSVAEGIKIGIQECQHQFRGRRWNCTTVHDSLAIFGPVLDKATRESAFVHAIASAGVAFAVTRSCAEGTAAICGCSSRHQGSPGKGWKWGGCSEDIEFGGMVSREFADARENRPDARSAMNRHNNEAGRQAIASHMHLKCKCHGLSGSCEVKTCWWSQPDFRAIGDFLKDKYDSASEMVVEKHRESRGWVETLRPRYTYFKVPTERDLVYYEASPNFCEPNPETGSFGTRDRTCNVSSHGIDGCDLLCCGRGHNARAERRREKCRCVFHWCCYVSCQECTRVYDVHTCK

Test system: human dermal fibroblasts (HDF: cell name 1616)
Assay: iPS cell colony establishment, 3 genes (Oct3/4, Sox2, Klf4) plus added gene or compound
Assay type: cell-based
Settings: Example 9, FIG. 9; Oct3/4, Sox2, Klf4 plus agent in medium (PS48 10 μM, CHIR99021 1 μM, Wnt3a 10 ng/ml); day 32
Source text: The following genes were introduced into human dermal fibroblasts (HDF: cell name 1616, purchased from Cell applications, Inc.) in the same manner as in the aforementioned Example 1.
In addition, the culture condition was changed (5×10^5 cells/well), and the following genes were introduced into human dermal fibroblasts (HDF: cell name 1616, purchased from Cell applications, Inc.) in the same manner.
In the same manner as in the aforementioned Example 1, the following genes were introduced into dermal fibroblasts (HDF: cell name 1616) in the presence of each low-molecular-weight compound.
The following genes were introduced into dermal fibroblasts (HDF: cell name 1616) in the same manner as in the aforementioned Example 1.
The following genes were introduced into human dermal fibroblasts (HDF: cell name 1616) in the same manner as in the aforementioned Example 1.
Furthermore, the following genes were introduced into human dermal fibroblasts (HDF: cell name 1616).

| Molecule | number of human iPS cell colonies |
| --- | --- |
| O=C(O)/C=C(/CCc1ccc(Cl)cc1)c1ccccc1 [PS48] | increased significantly |
| Cc1c[nH]c(-c2cnc(NCCNc3ccc(C#N)cn3)nc2-c2ccc(Cl)cc2Cl)n1 [CHIR99021] | tended to decrease |
| B1 | increased significantly |

From patent US9506039B2, “Efficient method for establishing induced pluripotent stem cells” (Kyoto University, priority 2010, dated 2016)
